According to patent US10450549B2, “Aryloxyphenoxypropionate tolerance in turfrgass species and use of AAD1 as a selectable marker” (Dow AgroSciences, LLC, priority 2004, dated 2019):

Assays:
AAD1 (v1) = molecular target: T1, AAD1 (v1) (Sphingobium herbicidovorans, UniProt Q8KSC8); assay: Colorimetric phenol detection assay of AAD1 (v1) activity (purified enzyme or E. coli extract); assay type: biochemical
T1 construct: made in house; host or cells: E. coli BL-21 Star (DE3), plasmid pDAB3203

AAD2 (v1) = AAD2 (v1) (Bradyrhizobium diazoefficiens, UniProt Q89UC4); assay: Colorimetric phenol assay of AAD2 (v1) E. coli extract / partially purified enzyme; assay type: biochemical, Bradyrhizobium japonicum; settings: E. coli extract
immature Hi-II embryos = assay: Dose response using immature maize embryos (% embryogenic callus formation); assay type: cell-based; settings: up to 30 nM
Procedure: Dose response studies were initiated using immature embryos treated with Agrobacterium strain LBA4404 lacking a plasmid as described previously. Once treated, embryos were allowed to co-cultivate for 5 days at 25° C. and were then transferred to selection media containing various levels of R-haloxyfop or R-cyhalofop. Embryos were also transferred to media containing 1 mg/L bialaphos and 100 nM imazethapyr as negative controls. Embryos were scored for % embryogenic callus formation after 2 weeks, and then again after 4 weeks.

[1] = tested on: T4 Arabidopsis homozygous for AAD1 (v3) (line AAD1.01.315.076); assay: Foliar-applied auxinic herbicides on homozygous T4 AAD1 (v3) Arabidopsis, % injury 14 DAT; assay type: in vivo, Arabidopsis thaliana; settings: AAD1.01.315.076.T4 homozygous AAD1 plants
Summary of the method: (§1)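 Homozygous T4 AAD1 (v3) Arabidopsis (line AAD1.01.315.076) and a PAT/Cry1F transformed control were grown in pots and track-sprayed foliarly at 187 L/ha with herbicides formulated in 200 mM Hepes pH 7.5. Injury was rated 14 days after treatment, with 3-4 replicates averaged over two experiments.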

[2] = tested on: transformed-control line containing PAT and Cry1F; assay: Foliar-applied auxinic herbicides on control (PAT/Cry1F, wildtype) Arabidopsis, % injury 14 DAT; assay type: in vivo, Arabidopsis thaliana; settings: PatCry1f - Control
Summary of the method: as §1

[3] = tested on: F1 corn containing AAD1 (v3), PAT, and glyphosate resistance genes; assay: Greenhouse injury of F1 corn stacked with AAD1 (v3), PAT and glyphosate resistance (2,4-D DMA, glyphosate, glufosinate and combinations); assay type: in vivo; settings: RR/PAT/AAD1
Source text: Homozygous T2 AAD1 (v3)/PAT corn plants were crossed with glyphosate resistant corn plants producing F1 seed containing AAD1 (v3), PAT, and glyphosate resistance genes as described in the previous example.
(§2) F1 seeds were planted individually into 3-inch pots prepared with Metro-Mix® 360 growing medium (Sun Gro Horticulture). […] For the remainder of the study the plants were subirrigated with deionized water.
(§3) The plants were sprayed with rates of 2,4-D DMA, glyphosate, glufosinate, and various combinations of the three. All applications were formulated in 200 mM Hepes buffer (pH 7.5). In spray applications where glufosinate was present the treatment was formulated with the addition of 2% w/v ammonium sulfate.
(§4) At 3 and 14 days after treatment (DAT) plants were evaluated. Plants were assigned injury rating with respect to stunting, chlorosis, and necrosis. Plants assigned an injury rating of 90% or above are considered dead.

[4] = tested on: AAD1 (v3) T1 tobacco (events 721(2)-013.010 and 721(3)-008.005); assay: Segregating AAD1 T1 tobacco response to phenoxy auxin herbicides; assay type: in vivo, Nicotiana tabacum
Source text: (§5) Two AAD1 (v3) tobacco lines (event 721(2)-013.010 and 721(3)-008.005) were chosen from the T0 generation. The T1 seed was stratified, and sown into selection trays much like that of Arabidopsis (Example 6.4), followed by selective removal of untransformed nulls in this segregating population with 280 g ai/ha glufosinate (PAT selection). Survivors were transferred to individual 3-inch pots in the greenhouse. […] Improved consistency of response is anticipated in T1 plants not having come directly from tissue culture. These plants were compared against wildtype KY 160 tobacco. All plants were sprayed with the use of a track sprayer set at 187 L/ha. […] All applications were formulated in 200 mM Hepes buffer (pH 7.5). Each treatment was replicated 4 times. Plants were evaluated at 3 and 14 days after treatment. Plants were assigned injury rating with respect to stunting, chlorosis, and necrosis. The T1 generation is segregating, so some variable response is expected due to difference in zygosity. (Table 28).

wildtype KY 160 tobacco = assay: Wildtype tobacco response to phenoxy auxin herbicides; assay type: in vivo, Nicotiana tabacum; settings: KY160-Wildtype
Procedure: Each treatment was replicated 1-3 times. Injury ratings were recorded 3 and 14 DAT. […] In several events, some initial auxinic herbicide-related epinasty occurred at doses of 800 g ae/ha or less. […] All events suffered some level temporary auxinic damage 3 DAT when treated with 3200 g ae/ha. Some leaf burning also occurred at this high rate due to the acidity of the spray solution. Future trials at high 2,4-D rates were buffered. […] Some events were inconsistent in response among replicates and were deemed “variable” (Table 27).
as §5

AAD1 (v3) cotton plant = assay: 2,4-D resistance of AAD1 (v3) cotton plant; assay type: in vivo; settings: 560 g ae/ha
Procedure: (§6) Two AAD1 (v3) cotton lines have produced plants according to the above protocol that have been sent to the greenhouse. […] The plants were sprayed at 560 g ae/ha 2,4-DMA formulated in 200 mM Hepes buffer (pH 7.5). The plants were evaluated at 3, 7, and 14 days after treatment. Plants were assigned injury ratings with respect to stunting, chlorosis, and necrosis. Plants assigned an injury rating of 90% or above are considered dead. […] By 7 DAT epinasy continued on the wild-type and the new growth shoots began turning brown. It received a rating of 50% at this time. At 14 DAT the AAD1 (v3) plant was still uninjured, whereas the wild-type was severely stunted, and the new growth areas were brown and shriveled. Thus, the wild-type received a rating of 90% at 14 DAT.

wild-type cotton plants = assay: 2,4-D injury of wild-type cotton plant; assay type: in vivo; settings: 560 g ae/ha
Procedure: as §6

Hi II X 5XH751 = assay: Greenhouse injury of non-transformed Hi II X 5XH751 corn (2,4-D DMA, glyphosate, glufosinate and combinations); assay type: in vivo
Procedure: as §2, §3, §4

[5] = tested on: pDAB3230-transformed Arabidopsis; assay: Glyphosate tolerance of pDAB3230 (AAD1 (v3)+EPSPS) T1 Arabidopsis; assay type: in vivo, Arabidopsis thaliana; settings: 7 DAT; EPSPS stacked with AAD1 (v3)
[6] = tested on: non-transformed (NT) ‘Shamrock’ Kentucky bluegrass; assay: Haloxyfop-R-methyl on non-transformed Kentucky bluegrass controls; assay type: in vivo; settings: seed grown plants
Procedure: The selected T0 plants were sprayed with haloxyfop-R-methyl (Gallant Super®, DOW AGROSCIENCES, INC.) at rates ranging from 140 to 560 g ae/ha. […] This rate would also control susceptible monocot weed species. Measured amounts were placed individually in 25 mL glass vials and dissolved in a 12 mL volume of 1.0% (v/v) Agri-Dex® Crop Oil Concentrate (COC).
Spray solutions were applied to the plant material with an overhead Mandel™ track sprayer equipped with a 8002E nozzles calibrated to deliver 187 L/ha over an application area of 0.503 square meters (m^2) at a spray height of 18 inches (46 cm) above average plant canopy height. Control plants were sprayed in the same manner with the COC blank.
The treated plants and control plants were placed in a greenhouse and watered by sub-irrigation to prevent wash-off of the test compounds. At various times after application, the condition of the test plants as compared with that of the untreated plants was determined visually and scored on a scale of 0 to 100 percent, where 0 corresponds to no injury or growth inhibition, and 100 corresponds to complete kill. Regenerated, non-transformed (NT) ‘Shamrock’ Kentucky bluegrass plants and/or seed-derived clonally propagated plants served as haloxyfop sensitive controls.

C[C@@H](Oc1ccc(Oc2ncc(C(F)(F)F)cc2Cl)cc1)C(=O)O [R-haloxyfop]
activity of AAD1 (v1) E. coli extract on substrate (AAD1 (v1); 0.5 mM substrate, 4 μl extract, 15 min): equivalent to that on (R,S)-haloxyfop | kcat (AAD1 (v1); purified AAD1 (v1)): 0.187 s⁻¹ | Km (AAD1 (v1); purified AAD1 (v1), 25 mM MOPS pH 6.8, 25° C., read-out: Km ± SE): 120 ± 54 µM | Vmax ± SE (AAD1 (v1); purified AAD1 (v1), Michaelis-Menten fit): 0.34 ± 0.04 μmol min^−1 mg^−1 AAD1 | AAD2 (v1) activity on substrate (AAD2 (v1)): unable to act | reduction of embryogenic callus formation (immature Hi-II embryos): insufficient reduction of callus formation

CNC.O=C(O)COc1ccc(Cl)cc1Cl [2,4-DMA]
Ave % Injury 14DAT ([1]; 12.5 g ae/ha foliar): 0% | Ave % Injury 14DAT ([1]; 25 g ae/ha foliar): 0% | Ave % Injury 14DAT ([1]; 50 g ae/ha foliar): 0% | Ave % Injury 14DAT ([1]; 100 g ae/ha foliar): 0% | Ave % Injury 14DAT ([1]; 200 g ae/ha foliar): 0% | Ave % Injury 14DAT ([1]; 400 g ae/ha foliar): 0% | Ave % Injury 14DAT ([1]; 800 g ae/ha foliar): 0% | Ave % Injury 14DAT ([1]; 1600 g ae/ha foliar): 0% | Ave % Injury 14DAT ([2]; 12.5 g ae/ha foliar): 67% | Ave % Injury 14DAT ([2]; 25 g ae/ha foliar): 78% | Ave % Injury 14DAT ([2]; 50 g ae/ha foliar): 93% | Ave % Injury 14DAT ([2]; 100 g ae/ha foliar): 100% | Ave % Injury 14DAT ([2]; 200 g ae/ha foliar): 100% | Ave % Injury 14DAT ([2]; 400 g ae/ha foliar): 100% | Ave % Injury 14DAT ([2]; 800 g ae/ha foliar): 100% | Ave % Injury 14DAT ([2]; 1600 g ae/ha foliar): 100% | % Injury at 14 DAT Ave ([3]; 560 g ae/ha (1X)): 0% | % Injury at 14 DAT Ave ([3]; 1120 g ae/ha (2X)): 0% | % Injury at 14 DAT Ave ([3]; 2240 g ae/ha (4X)): 0% | Average % Injury of Replicates 14 DAT ([4]; 560 g ae/ha, 721(2)013.010 (medium tolerance in T0 generation)): 5% | Average % Injury of Replicates 14 DAT ([4]; 560 g ae/ha, 721(3)008.005 (high tolerance in T0 generation)): 0% | Average % Injury of Replicates 14 DAT ([4]; 1120 g ae/ha, 721(2)013.010 (medium tolerance in T0 generation)): 5% | Average % Injury of Replicates 14 DAT ([4]; 1120 g ae/ha, 721(3)008.005 (high tolerance in T0 generation)): 2% | Average % Injury of Replicates 14 DAT ([4]; 2240 g ae/ha, 721(2)013.010 (medium tolerance in T0 generation)): 5% | Average % Injury of Replicates 14 DAT ([4]; 2240 g ae/ha, 721(3)008.005 (high tolerance in T0 generation)): 0% | Average % Injury of Replicates 14 DAT ([4]; 4480 g ae/ha, 721(2)013.010 (medium tolerance in T0 generation)): 5% | Average % Injury of Replicates 14 DAT ([4]; 4480 g ae/ha, 721(3)008.005 (high tolerance in T0 generation)): 5% | Average % Injury of Replicates 14 DAT (wildtype KY 160 tobacco; 560 g ae/ha): 75% | Average % Injury of Replicates 14 DAT (wildtype KY 160 tobacco; 1120 g ae/ha): 80% | Average % Injury of Replicates 14 DAT (wildtype KY 160 tobacco; 2240 g ae/ha): 90% | Average % Injury of Replicates 14 DAT (wildtype KY 160 tobacco; 4480 g ae/ha): 95% | injury, AAD1 (v3) cotton (AAD1 (v3) cotton plant; 3 DAT): 0% | injury, AAD1 (v3) cotton (AAD1 (v3) cotton plant; 14 DAT): uninjured | injury rating, wild-type cotton (wild-type cotton plants; 3 DAT): 15% | injury rating, wild-type cotton (wild-type cotton plants; 7 DAT): 50% | injury rating, wild-type cotton (wild-type cotton plants; 14 DAT): 90% | % Injury at 14 DAT Ave (Hi II X 5XH751; 560 g ae/ha (1X)): 10% | % Injury at 14 DAT Ave (Hi II X 5XH751; 1120 g ae/ha (2X)): 14% | % Injury at 14 DAT Ave (Hi II X 5XH751; 2240 g ae/ha (4X)): 29%

O=C(O)CNCP(=O)(O)O [glyphosate]
level of glyphosate tolerance (I50) vs. wildtype and transformed control lines [5]: > 14 fold | % Injury at 14 DAT Ave ([3]; 840 g ae/ha (1X field rate)): 0% | % Injury at 14 DAT Ave ([3]; 1680 g ae/ha (2X)): 0% | % Injury at 14 DAT Ave ([3]; 3360 g ae/ha (4X)): 0% | % Injury at 14 DAT Ave (Hi II X 5XH751; 840 g ae/ha (1X field rate)): 98% | % Injury at 14 DAT Ave (Hi II X 5XH751; 1680 g ae/ha (2X)): 100% | % Injury at 14 DAT Ave (Hi II X 5XH751; 3360 g ae/ha (4X)): 100%

COC(=O)[C@@H](C)Oc1ccc(Oc2ncc(C(F)(F)F)cc2Cl)cc1 [haloxyfop-R-methyl]
GR90 (herbicide rate which produces 90% injury and/or growth inhibition) [6]: approximately 70 g ae/ha
